Results reported in patent US11873521B2, “Steviol glycoside and production method therefor, and sweetener composition containing same” (SUNTORY HOLDINGS LIMITED, priority 2017, dated 2024).
Entries after “also recorded” stand apart in the source; their conditions may differ.

Tests used:
[1] = Evaluation of flavors of novel steviol glycosides in powder forms; assay type: in vivo; conditions: only β-form
Procedure: Flavors of Novel steviol glycosides 1 and 2 in powder forms were evaluated. Specifically, Compounds 15 (corresponding to Novel steviol glycoside 1) and 17 (corresponding to Novel steviol glycoside 2) obtained by chemical syntheses were subjected to high performance liquid chromatography (HPLC) to isolate only the β-form, which was made into a powder form and subjected to flavor evaluation. Panelists trained about sensory attributes of sweeteners members: Suntory Beverage and Food Ltd.) evaluated.

[2] = Solubility in water; assay type: physicochemical
[3] = samples adjusted to final Brix of 2 in terms of sucrose; cited from earlier work
[4] = background art; cited from earlier work

SMILES | undesirable flavor such as bitterness [1] | sweetness level assumed for preparing beverage samples [3] | sweetness relative to sugar [4] | other results
C=C1C[C@@]23CCC4[C@](C)(C(=O)O[C@@H]5OC(CO)[C@@H](O)[C@H](O)C5O[C@@H]5OC(C)[C@H](O)[C@H](O)C5O)CCC[C@@]4(C)[C@@H]2CCC1(O[C@@H]1OC(CO)[C@@H](O)[C@H](O[C@@H]2OC(CO)[C@@H](O)[C@H](O)C2O)C1O[C@@H]1OC(C)[C@H](O)[C@H](O)C1O)C3 (some centres unmarked) [Compound 15] | less undesirable flavor such as bitterness | – | – | Presence of sweetness ([1]; listed as Novel steviol glycoside 1): had sweetness; also recorded: Present; solubility in water [2]: did not dissolve in water sufficiently
C=C1C[C@@]23CCC4[C@](C)(C(=O)O[C@@H]5OC(CO)[C@@H](O)[C@H](O[C@@H]6OC(CO)[C@@H](O)[C@H](O)C6O)C5O[C@@H]5OC(C)[C@H](O)[C@H](O)C5O)CCC[C@@]4(C)[C@@H]2CCC1(O[C@@H]1OC(CO)[C@@H](O)[C@H](O[C@@H]2OC(CO)[C@@H](O)[C@H](O)C2O)C1O[C@@H]1OC(C)[C@H](O)[C@H](O)C1O)C3 (some centres unmarked) [Compound 17] | less undesirable flavor such as bitterness | – | – | Presence of sweetness ([1]; listed as Novel steviol glycoside 2): had sweetness; also recorded: Present; Flavor characteristics ([1]; listed as Novel steviol glycoside 2, bitterness): No bitterness; Flavor characteristics ([1]; listed as Novel steviol glycoside 2, overall flavor): Flavor resembled the mixture
C=C1C[C@@]23CC[C@H]4[C@@](C)(CCC[C@@]4(C)C(=O)O[C@@H]4O[C@H](CO)[C@@H](O)[C@H](O)[C@H]4O)[C@@H]2CC[C@]1(O[C@@H]1O[C@H](CO)[C@@H](O)[C@H](O[C@@H]2O[C@H](CO)[C@@H](O)[C@H](O)[C@H]2O)[C@H]1O[C@@H]1O[C@H](CO)[C@@H](O)[C@H](O)[C@H]1O)C3 [Reb.A, rebaudioside A] | – | 300 | 350-450 times the sweetness of sugar | –
C=C1C[C@@]23CC[C@H]4[C@@](C)(CCC[C@@]4(C)C(=O)O[C@@H]4O[C@H](CO)[C@@H](O)[C@H](O)[C@H]4O[C@@H]4O[C@H](CO)[C@@H](O)[C@H](O)[C@H]4O)[C@@H]2CC[C@]1(O[C@@H]1O[C@H](CO)[C@@H](O)[C@H](O[C@@H]2O[C@H](CO)[C@@H](O)[C@H](O)[C@H]2O)[C@H]1O[C@@H]1O[C@H](CO)[C@@H](O)[C@H](O)[C@H]1O)C3 [Reb.D, rebaudioside D] | – | 250 | – | –
C=C1C[C@@]23CC[C@H]4[C@@](C)(CCC[C@@]4(C)C(=O)O[C@@H]4O[C@H](CO)[C@@H](O)[C@H](O)[C@H]4O)[C@@H]2CC[C@]1(O[C@@H]1O[C@H](CO)[C@@H](O)[C@H](O)[C@H]1O[C@@H]1O[C@H](CO)[C@@H](O)[C@H](O)[C@H]1O)C3 [Stevioside] | – | – | 250-300 times the sweetness of sugar | –
